Values quoted from earlier work as cited in publication PMC10002517, “Inhibition of Transglutaminase 2 as a Therapeutic Strategy in Celiac Disease—In Vitro Studies in Intestinal Cells and Duodenal Biopsies” (International Journal of Molecular Sciences, 2023).

Legend:
[1] = given intravenously, clinical trials; rapid binding to plasma components; cited from earlier work
Source text: This might be explained by rapid degradation or reduction of PX-12 by living cells. This is in line with observations in clinical trials, where PX-12 plasma levels were very low when given intravenously due to rapid binding to plasma components.

tumor cell lines = settings: 10 µM; cited from earlier work
Procedure: To further examine the applicability of both substances, we analyzed their effect on the viability of Caco-2 cells. […] In those studies, however, viability was determined in tumor cell lines and not in differentiated int ...

CCC(C)SSc1ncc[nH]1 (centres unmarked) [PX-12, 2-[(1-methylpropyl)dithio]-1H-imidazole]
plasma levels [1]: very low
cytotoxicity (tumor cell lines): cytotoxic effects
